Results as given in publication PMC8945686, “Anticancer Effects with Molecular Docking Confirmation of Newly Synthesized Isatin Sulfonamide Molecular Hybrid Derivatives against Hepatic Cancer Cell Lines” (Biomedicines, 2022).
Marks after values point to notes of the source that are not given here.

How the values were obtained:
[1] = system: Huh7 cells; test: MTT cytotoxicity assay on Huh7 cells; assay type: cell-based, human; conditions: for IC50: Homo sapiens, Huh-7, 48 h
Method: (§1) MTT-based cell viability assay was carried out to evaluate the antiproliferation potential of the target compounds on HCC cell lines (HepG2 and Huh7). The half maximal inhibitory concentration (IC50) values were calculated against DMSO non-treated HepG2 cells (negative control) and Dox-treated HepG2 cells (positive control). The assay was conducted using 3-(4, 5-di-MethylThiazol-2-yl)-2,5-diphenyl Tetrazolium bromide (MTT) to test cell viability, according to the method described by Mosmann with minor changes. The yellow MTT is reduced in the viable cells to purple formazan. The insoluble formazan is solubilized by DMSO to colored solution measured spectrophotometrically. Briefly, cells were seeded in a 96-well plate at density of 1 × 10^4 cells/well for 24 h in 5% CO2 incubator at 37 °C to allow their adherence. […] After incubation, 20 μL of a 5 mg/mL MTT solution were mixed with the contents of each well, and the plate was incubated for another 4 h. Then, the medium was suctioned, and the wells were washed with PBS. After 2 h of drying, 200 μL of DMSO was added to each well. The plate was set on a shaker to dissolve the formazan crystals. Then, the absorbance was measured spectrophotometrically at 570 nm with a reference wavelength of 630 nm using ELX800 UV universal microplate reader (BioTek Instruments Inc., VT, Santa Clara, CA, USA).
(§2) All experiment conditions were tested in three replicates. The % cell viability was calculated from the following equation: (mean absorbance of treated sample/mean absorbance of negative control sample) × 100. The % death rate = 100 -% cell viability, and the inhibitory concentration of 50% (IC50) was measured from the exponential curve of viability against concentration (dose–response curve).

[2] = system: HepG2 cells; test: MTT cytotoxicity assay on HepG2 cells; assay type: cell-based; conditions: Homo sapiens; for cytotoxicity at 100 ppm: 48 h, 100 p.p.m (μg/mL), read-out: % Death Rate at 100 p.p.m (μg/mL) HepG2; for IC50: HepG2, 48 h
Method: as §1, §2

[3] = In vitro safety/cell viability MTT assay on normal RPE1 cells; assay type: cell-based, human; conditions: human, RPE1 cells (noncancerous), normal RPE1 cells, MTT
[4] = system: mice; test: In vivo acute (14-day) oral toxicity study; conditions: for S.ALT / S.AST / S.Creatinine / S.D.Bilirubin / S.T.Bilirubin / S.Urea: 14 days after single dose, compounds 250 mg/kg oral, doxorubicin 15 mg/kg I.P; for Survival over the treatment period (14 days) / Physical or abnormal changes (body weight, skin, fur, eyes, behavior, overall appearance): single acute oral dose of 250 mg/kg; for Physical or abnormal changes (body weight, skin, fur, eyes, behavior, overall appearance): 14 days
Text: GPower 3.0.10 software was used to estimate the sample size needed for the experiment and the number of mice per group but, according to the Organization for Economic Cooperation and Development (OECD) Test Guidelines No. 407 (OECD, 2008 and updated 2017) and under the International Academy of Science’s Guide for the Care and Use of Laboratory Animals, as well as the ARRIVE guidelines, to use the least number of mice per group for the acute single dose oral toxicity test.
Animals were divided randomly into nine groups (5 animals per group). Before the experiment, the body weight (BW) of all mice was recorded. All mice were made to fast for 24 h and treated once (day zero) then carefully monitored for 14 days.
Normal control group: mice received saline orally once;
Negative control group: mice received vehicle (DMSO) orally once;
Positive control group: mice were injected with Dox (15 mg/kg BW, i.p.) once.
Isatin-sulfonamide-derivative-compound-treated groups (2a, 3a, 3d and 4b, 4c and 4d) of mice received 250 mg/kg BW of each orally once.
The animals’ BWs were recorded at the end of the 14 days of observation. Blood samples were collected from the retro-orbital plexus and allowed to clot. Sera were prepared by centrifugation at 4000 rpm for 15 min and then kept frozen at − 80 °C for liver and kidney function tests (LFTs and KFTs). Thereafter, mice were deprived of food overnight, euthanized, and sacrificed by cervical dislocation. Liver and kidney tissues were collected, washed with ice-cold saline, and weighed. Excised weighed livers and kidneys were fixed in a suitable buffer for histological examination.
Liver and kidney tissues were fixed in 10% neutral buffered formaldehyde overnight and then embedded in paraffin, […] in serial grades of alcohols, cleared in xylene, and were subjected to […], where 4 μm thick tissue sections were cut by rotatory microtome. Tissue sections were stained with hematoxylin and eosin (H and E) for histological examination using full HD light microscopic imaging system (Leica Microsystems GmbH, Wetzlar, Germany). Standard procedures for sample fixation and staining were done as previously described.

[5] = system: HepG2 cells; test: Annexin V/FITC-PI apoptosis assay; assay type: cell-based, human; conditions: HepG2, IC50 of the compound, 24 h (method says 48 h)
Method: Annexin V/PI double staining kit (eBiosciencesDx) was used to detect apoptotic activity of the selected isatin sulfonamide derivatives. The Annexin V corresponding signal provides a very sensitive marker for cellular apoptosis, while PI was used to detect necrotic or late apoptotic cells, identified by the loss of plasma integrity and loss of nuclear membranes.
Briefly, 1 × 10^5 cells/mL of HepG2 cells were seeded into a 6-well plate and incubated at 37 °C, 5% CO2, overnight. […] After time elapsed, trypsinization of cells was carried out. Washing was done by PBS once, followed by fixation using 70% ethanol. Fixed cells were stored at 4 °C for 2 h, then centrifuged at 500× g for 5 min. Again, cells were washed with PBS prior to staining. An amount of 200 μL of the staining solution (annexin V- fluorescein 5-isothiocyanate (FITC) and PI in binding buffer (10 mM HEPES, 140 mM NaCl, and 2.5 mM CaCl2 at pH 7.4)) were added to the cell suspension and incubated at 37 °C for 20 to 30 min in dark and analyzed with a fluorescence-activated cell sorter (FACS) (BD FACSCalibur, BD Biosciences, California, USA). Data were analyzed using ModFit LT v2.0 (Verity Software House, Topsham, Maine, USA).
These plots were divided into four regions corresponding to: • (1) Viable cells, which are negative to both probes (PI/FITC −/−), • (2) Apoptotic cells, which are PI negative and Annexin positive (PI/FITC −/+), • (3) Late apoptotic cells, which are both PI and Annexin positive (PI/FITC +/+), • (4) Necrotic cells, which are PI positive and Annexin negative (PI/FITC+/−).

SMILES | IC50 [1] [µM] | cytotoxicity at 100 ppm [2] [%] | IC50 [2] [µM] | % Death Rate at 100 p.p.m (μg/mL) Huh7 ([1]; 48 h, 100 p.p.m (μg/mL)) | CC50 at 48 h [3] [µM] | viability at 48 h, 100 p.p.m (μg/mL) [3] [%] | S.ALT [4] | S.AST [4] | S.Creatinine [4] | S.D.Bilirubin [4] | S.T.Bilirubin [4] | S.Urea [4] | Survival over the treatment period (14 days) [4] | Physical or abnormal changes (body weight, skin, fur, eyes, behavior, overall appearance) [4] | %Cell Death Late Apoptosis [5] [%]
Nc1cccc(C(=O)CC2(O)C(=O)Nc3ccc(S(=O)(=O)N4CCCCC4)cc32)c1 (centres unmarked) [Compound 3b] | > 100 | 1.2 | > 100 |  |  |  |  |  |  |  |  |  |  |  | 
CCOC(=O)/C(C#N)=C1\C(=O)Nc2ccc(S(=O)(=O)N3CCCCC3)cc21 [Compound 2a] | 40 ± 3.8 | 81.5 | 54.6 ± 2 | 100 * % | 40.3 ± 1.61 | 4.4 | 28.42 ± 0.27 ^^ U/L | 37.11 ± 0.35 ^^ U/L | 0.59 ± 0.04 ^^ mg/dL | 0.16 ± 0.003 ^^ mg/dL | 0.65 ± 0.018 ^^ mg/dL | 52.24 ± 0.65 ^^ mg/dL | survived | No physical or abnormal changes were observed | 
O=C(CC1(O)C(=O)Nc2ccc(S(=O)(=O)N3CCCCC3)cc21)c1ccc(O)cc1 (centres unmarked) [Compound 3d] | > 100 | 19.5 | > 100 |  |  |  |  |  |  |  |  |  |  |  | 
N#C/C(C(N)=O)=C1/C(=O)Nc2ccc(S(=O)(=O)N3CCCCC3)cc21 [Compound 2b] | > 100 | 10.2 | > 100 |  |  |  |  |  |  |  |  |  |  |  | 
O=C1Nc2ccc(S(=O)(=O)N3CCCCC3)cc2/C1=C/C(=O)c1ccc(O)cc1 [Compound 4d] | 18.8 ± 0.8 | 100 | 13.3 ± 0.75 |  | 11.9 ± 0.7 | 0 | 30.14 ± 0.93 ^^ U/L | 38.72 ± 1.37 ^#,^ U/L | 0.85 ± 0.03 ^^ mg/dL | 0.18 ± 0.004 ^^ mg/dL | 0.69 ± 0.016 ^^ mg/dL | 48.18 ± 0.53 ^^ mg/dL | survived | No physical or abnormal changes were observed | 
Cc1ccc(C(=O)/C=C2\C(=O)Nc3ccc(S(=O)(=O)N4CCCCC4)cc32)cc1 [Compound 4a] | > 100 | 100 | 12 ± 0.4 |  | 21.9 ± 1.15 | 0 | 28.14 ± 0.56 ^^ U/L | 36.51 ± 0.15 ^^ U/L | 0.70 ± 0.02 ^^ mg/dL | 0.17 ± 0.004 ^^ mg/dL | 0.72 ± 0.019 ^^ mg/dL | 55.10 ± 2.96 ^^ mg/dL | survived | No physical or abnormal changes were observed | 
Nc1ccc(C(=O)CC2(O)C(=O)Nc3ccc(S(=O)(=O)N4CCCCC4)cc32)cc1 (centres unmarked) [Compound 3c] | > 100 | 11.5 | > 100 |  |  |  |  |  |  |  |  |  |  |  | 18.08
